Assay in all cases: NCI-60 cell line screen, 48 h
In experiment [1] the test system is HCC-2998 colon.
In experiment [2] the test system is HT29 colon.
For experiment [3], the system named is OVCAR-8 ovarian.
The test system of experiment [4] is RPMI-8226 leukemia.
The subject of experiment [5] is SK-OV-3 ovarian.
Experiment [6] has as its system SN12C renal.
Experiment [7] concerns UO-31 renal.
The test system of experiment [8] is RXF 393 renal.

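96-well plates; 48 h exposure; 5 concentrations. Endpoints by linear interpolation between flanking doses. Not reached: highest tested concentration assigned. The concentration for full growth arrest is given as TGI.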

Consider `O=c1[nH]nc2ccccc2c1Cl`, for which the TGI in experiment [1] was determined as 7.27 µM; in experiment [2], 23.6 µM; in experiment [3] it was 54.3 µM; in experiment [4] it was 8.87 µM; in experiment [5], 33.5 µM; in experiment [6], 34.2 µM. The molecule further registered a TGI in experiment [7] of 28.2 µM.

On to `CN(C)CCNC(=O)c1ccc(C(=O)NCCN(C)C)c2nc3ccccc3cc12`, for which the TGI in experiment [1] stood at 2.98 µM; in experiment [2], 6.15 µM; in experiment [3], 12.7 µM; in experiment [8] it was 2.09 µM; in experiment [5] it was 7.5 µM; in experiment [6], 8.96 µM. This molecule registered a TGI in experiment [7] of 18 µM.

For `Nc1ccn(CCO)c(=O)n1`, the TGI in experiment [1], in experiment [2], in experiment [3], in experiment [4], in experiment [8] and in experiment [5] was over 100 µM in each case. In addition, the TGI in experiment [6] and in experiment [7] was over 100 µM throughout.

In the case of `CC(=O)Nc1ccc(/C=N\N2C(=O)c3ccccc3C2=O)cc1`, the TGI in experiment [1], in experiment [2], in experiment [3], in experiment [4], in experiment [8] and in experiment [6] was over 100 µM each time. In addition, the TGI in experiment [7] was over 100 µM.

Turning to `OCC(O)C(OC1OC(CO)C(O)C(O)C1O)c1nn(-c2ccccc2)c2nc3cc(Cl)c(Cl)cc3cc12` (stereo not given), the TGI in experiment [1], in experiment [2], in experiment [3], in experiment [4], in experiment [8] and in experiment [5] was over 100 µM throughout. The TGI in experiment [6] and in experiment [7] was over 100 µM in each case.

Turning to `CCCCCCCCC(=O)N(C)C1C2CN3CCC(O2)C13` (stereo not given), the TGI in experiment [1], in experiment [2], in experiment [4], in experiment [8], in experiment [5] and in experiment [6] was over 100 µM throughout. The molecule also had a TGI in experiment [7] of over 100 µM.

On to `COc1ccc(C2=NN(C(=O)COc3ccc(Cl)cc3)C(O)(c3ccc(Cl)cc3)C2)cc1` (stereo not given), for which the TGI in experiment [1], in experiment [2], in experiment [3], in experiment [4], in experiment [5] and in experiment [6] was over 100 µM throughout. In addition, the TGI in experiment [7] was over 100 µM.

Consider `CCOC(=O)C1=C(NNC(=O)Cc2ccccc2)CSC1=Nc1ccccc1`, for which the TGI in experiment [1], in experiment [2], in experiment [3], in experiment [8], in experiment [5] and in experiment [6] was over 100 µM in each case. For the same molecule, the TGI in experiment [7] is over 100 µM.

Regarding `Fc1cccc2cc3ccc4cccc5ccc(c12)c3c45`, the TGI in experiment [1], in experiment [2], in experiment [3], in experiment [8], in experiment [5] and in experiment [6] was over 100 µM throughout. Also, in experiment [7], the TGI was over 100 µM.

As for `CC1CC2C(=O)N(c3ccccc3)C(=O)C2c2c1c1ccccc1n2Cc1ccccc1` (stereo not given), the TGI in experiment [2], in experiment [3], in experiment [4], in experiment [5], in experiment [6] and in experiment [7] was over 100 µM each time.

As to `O=C(/C=C/c1ccc(Cl)c(Cl)c1)c1ccc(F)cc1`, the TGI in experiment [1] was found to be 32.8 µM; in experiment [2], 27.6 µM; in experiment [3], 30.8 µM; in experiment [4], 12.6 µM; in experiment [5], 83.5 µM; in experiment [6] it was 52.2 µM. The TGI in experiment [7] was over 100 µM.

Turning to `COc1ccc(C(Cc2cc(OC)c(OC)c(OC)c2)C(=O)O)cc1` (stereo not given), the TGI in experiment [1], in experiment [2], in experiment [3], in experiment [4], in experiment [5] and in experiment [6] was over 100 µM in each case. The same molecule came in with a TGI in experiment [7] of over 100 µM.

Regarding `CS(=O)(=O)OCCn1cnc2nc(NC(=O)c3ccccc3)[nH]c(=O)c21`, the TGI in experiment [2], in experiment [3], in experiment [4], in experiment [8], in experiment [5] and in experiment [6] was over 100 µM throughout. In experiment [7], the TGI was over 100 µM.

Turning to `Nc1c(Br)c(=O)[nH]c(=O)n1COCCO`, the TGI in experiment [1], in experiment [2], in experiment [3], in experiment [8], in experiment [6] and in experiment [7] was over 100 µM each time.

Consider `CC(/C(=N/NC(=O)C(N)=O)c1c(Cl)ccc(Cl)c1O)C1(O)C(=O)Nc2ccccc21` (stereo not given), for which the TGI in experiment [1], in experiment [2], in experiment [3], in experiment [8], in experiment [5] and in experiment [6] was over 100 µM each time. In experiment [7], this molecule gave a TGI of over 100 µM.
